The chains are these.
T1: human ferroportin (SLC40A1) fused in frame with GFP, stably expressed in HEK293 cells (human, UniProt Q9NP59 1-571)
T1 sequence (looked up): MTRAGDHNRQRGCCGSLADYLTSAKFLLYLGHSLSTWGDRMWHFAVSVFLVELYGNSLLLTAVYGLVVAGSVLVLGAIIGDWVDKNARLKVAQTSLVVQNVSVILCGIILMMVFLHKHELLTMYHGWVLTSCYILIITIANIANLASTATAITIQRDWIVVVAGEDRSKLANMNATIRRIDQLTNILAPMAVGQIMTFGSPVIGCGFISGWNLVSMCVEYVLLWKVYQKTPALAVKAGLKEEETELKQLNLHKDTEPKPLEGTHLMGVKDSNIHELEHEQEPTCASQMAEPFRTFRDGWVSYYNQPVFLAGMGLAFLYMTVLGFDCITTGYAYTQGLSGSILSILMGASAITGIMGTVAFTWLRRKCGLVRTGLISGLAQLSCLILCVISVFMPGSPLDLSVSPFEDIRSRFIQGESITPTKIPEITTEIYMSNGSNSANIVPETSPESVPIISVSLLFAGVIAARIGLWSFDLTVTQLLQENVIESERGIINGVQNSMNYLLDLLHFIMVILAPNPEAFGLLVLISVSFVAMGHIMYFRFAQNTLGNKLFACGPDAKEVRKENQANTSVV

Non-standard residues stand in square brackets, D forms with d. Groups on a side chain read outwards from the residue. *: point of attachment. C18 diacid = O=C(O)CCCCCCCCCCCCCCCCC(=O)*; Dip = N[C@H](C(=O)O)C(c1ccccc1)c1ccccc1; β3hF = N[C@H](CC(=O)O)Cc1ccccc1; Isovaleryl = CC(C)CC(=O)*; AEEA = NCCOCCOCC(=O)O; Ahx = NCCCCCC(=O)O

In one test the test system is LAD2 cells.
Test: not given
The format is cell-based, human.
Details: not given
From the text:
In anaphylactoid reactions, the main mechanism involves the direct stimulation of mast cells or basophils, leading to the release of anaphylactic mediators such as histamine and β-hexosaminidase. A recent study by McNeil et al. (McNeil B D et al., 2015) reported that MrgprX2, a specific membrane receptor on human mast cells, induces anaphylactoid reactions. The LAD2 (Laboratory of Allergic Diseases 2) human mast cell line, derived from human mast cell sarcoma/leukemia (Kirshenbaum et al., 2003), is commonly employed to study anaphylactoid reactions, because its biological properties are identical to those of primary human mast cells, including the overexpression of the MrgprX2 receptor and sensitivity towards degranulating peptides (Kulka et al., 2008). The release of anaphylactic mediators such as f-hexosaminidase, is assessed by fluorometric quantification.
On the day of the assay, serial dilutions of compounds were added to LAD2 cells plated at 20000 cells/well in a 96-well plate. After incubation for 30 minutes, the amount of β-hexosaminidase released into the supernatants and in cell lysates was quantified using the fluorogenic substrate 4-methylumbelliferyl-N-acetyl-b-D-glucosaminide. Dose-response curves were generated by plotting the % of β-hexosaminidase release (y-axis) against the concentrations of peptides tested (x-axis). […]. (Table 2D).
As to `CC[C@H](C)[C@@H]1NC(=O)[C@@H](NC(=O)[C@@H]2CCCN2C(=O)[C@@H](NC(=O)[C@H](Cc2cnc[nH]2)NC(=O)[C@@H](NC(=O)[C@H](CCC(=O)O)NC(=O)CC(C)C)[C@@H](C)O)C(c2ccccc2)c2ccccc2)CSSC[C@@H](C(N)=O)NC(=O)[C@@H](CCCCNC(=O)CCOCCOCCOCCOCCOCCOCCOCCOC)NC(=O)C[C@H](Cc2ccccc2)NC(=O)[C@H](CCCCNC(=O)COCCOCCNC(=O)COCCOCCNC(=O)CCCCCNC(=O)CCCCCCCCCCCCCCCCC(=O)O)NC1=O` [Compound 256, Isovaleric Acid-E-T-H-[Dpa]-P—C—I-[Lys(1PEG2_1PEG2_Ahx_C18_Diacid)]-[bhPhe]-[(D)Lys(PEG7_OMe)]—C—NH2], the EC50 is > 100 µM. The same measure, in the same setting: to `CC[C@H](C)C1NC(=O)[C@@H](NC(=O)[C@@H]2CCCN2C(=O)[C@@H](NC(=O)[C@H](Cc2cnc[nH]2)NC(=O)[C@@H](NC(=O)[C@H](CCC(=O)O)NC(=O)CC(C)C)[C@@H](C)O)C(c2ccccc2)c2ccccc2)CSSC[C@@H](C(N)=O)NC(=O)[C@@H](CCCCN)NC(=O)C[C@H](Cc2ccccc2)CC(=O)C(CCCCNC(=O)CCOCCOCCOCCOCCOCCOCCOCCOCCOCCOCCOCCOCCNC(=O)CCCCCCCCCCCCCCCCC(=O)O)NC1=O` (some centres unmarked) [Compound 113, Isovaleric Acid-E-T-H-[Dpa]-P-[Cys]-I-[Lys(2Peg11′_C18_Diacid)]-[bhPhe]-[(D)Lys]-[Cys]-NH2] belongs 27 µM; to `CCCCCCCCCCCCCCCC(=O)NCCCCCC(=O)NCCCC[C@@H]1NC(=O)C[C@H](Cc2ccccc2)NC(=O)[C@@H](CCCCNC(=O)CCOCCOCCOCCOCCOCCOCCOCCOCCOCCOCCOCCOC)NC(=O)[C@H](C(C)CC)NC(=O)C(NC(=O)[C@@H]2CCCN2C(=O)[C@@H](NC(=O)[C@H](Cc2cnc[nH]2)NC(=O)[C@@H](NC(=O)[C@H](CCC(=O)O)NC(=O)CC(C)C)[C@@H](C)O)C(c2ccccc2)c2ccccc2)CSSC[C@@H](C(N)=O)NC(=O)[C@@H](CCCCNC(=O)CCOCCOCCOCCOCCOCCOCCOCCOCCOCCOCCOCCOC)NC1=O` (some centres unmarked) [Compound 19, Isovaleric Acid-E-T-H-[Dpa]-P-[Cys]-I-[(D)Lys(2Peg11′_OMe)]-[bhPhe]-[Lys(Ahx_Palm)]-[(D)Lys(2Peg11′_OMe)]-[Cys]-NH2], > 100 µM.

On to `CC[C@H](C)[C@@H]1NC(=O)[C@@H](NC(=O)[C@@H]2CCCN2C(=O)[C@@H](NC(=O)[C@H](Cc2cnc[nH]2)NC(=O)[C@@H](NC(=O)[C@H](CCC(=O)O)NC(=O)CC(C)C)[C@@H](C)O)C(c2ccccc2)c2ccccc2)CSSC[C@@H](C(N)=O)NC(=O)[C@@H](CCCCN)NC(=O)C[C@H](Cc2ccccc2)NC(=O)[C@H](CCCCNC(=O)COCCOCCNC(=O)COCCOCCNC(=O)CC[C@H](NC(=O)CCCCCCCCCCCCCCCCC(=O)O)C(=O)O)NC1=O` [Compound 107, Isovaleric Acid-E-T-H-[Dpa]-P-[Cys]-I-[Lys(1Peg2_1Peg2_IsoGlu_C18_Diacid)]-[bhPhe]-[(D)Lys]-[Cys]-NH2], for which the EC50 is > 33 µM. On the same count and under the same terms, for `CC[C@H](C)[C@@H]1NC(=O)[C@@H](NC(=O)[C@@H]2CCCN2C(=O)[C@@H](NC(=O)[C@H](Cc2cnc[nH]2)NC(=O)[C@@H](NC(=O)[C@H](CCC(=O)O)NC(=O)CC(C)C)[C@@H](C)O)C(c2ccccc2)c2ccccc2)CSSCC(C(N)=O)NC(=O)[C@@H](CCCCNC(=O)CCOCCOCCOCCOCCOCCOCCOCCOCCOCCOCCOCCOC)NC(=O)C[C@H](Cc2ccccc2)NC(=O)[C@H](CCCCNC(=O)COCCOCCNC(=O)COCCOCCNC(=O)CCCCCNC(=O)CCCCCCCCCCCCCCCCC(C)=O)NC1=O` (some centres unmarked) [Compound 255, Isovaleric Acid-E-T-H-[Dpa]-P—C—I-[Lys(1PEG2_1PEG2_Ahx_C18_Diacid)]-[bhPhe]-[(D)Lys(PEG11_OMe)]—C—NH2] the value was > 100 µM.

The test is the same for the next values; noted with them: LAD2 mast cells, β-hexosaminidase release, 30 minutes incubation; read-out: EC50: LAD2.
As for “Isovaleric Acid-E-T-H—F—P—C—I-[Lys(IsoGlu_C18_Diacid)]-F-E-P—R—S—K-G-C—K—NH2 [Compound 222]”, the EC50 is > 100 µM. The same measure, in the same setting: to “Isovaleric Acid-E-T-H—F—P—C—I-[Lys(IsoGlu_Palm)]-F-E-P—R—S—K-G-[Pen]-K—NH2 [Compound 224]” belongs 2.6 µM. The same measure, in the same setting: to “Isovaleric Acid-E-T-H-[Dpa]-P—C—I-[Lys(1PEG2_1PEG2_1PEG2_C18_Diacid)]-[bhPhe]-[(D)Lys]-C—NH2 [Compound 254]” belongs > 33 µM; to “Isovaleric Acid-E-T-H—F—P—C—I-[Lys(1PEG2_1PEG2_IsoGlu_C18_Diacid)]-F-E-P—R—S—K-G-C—K—NH2 [Compound 220]”, > 33 µM. For “Isovaleric Acid-E-T-H-[Dpa]-P—C—I-[Lys(PEG12_IsoGlu_Palm)]-[bhPhe]-[(D)Lys(PEG11_OMe)]—C—NH2 [Compound 291]”, the EC50 was > 100 µM.

As for “Isovaleric Acid-E-T-H-F—P—C—I-[Lys(IsoGlu_Palm)]-F-E-P—R-S—K-G-C—NH2 [Compound 225]”, the EC50 came out at 4.8 µM. With “Isovaleric Acid-E-T-H—F—P—C—I-[Lys(1PEG2_1PEG2_Ahx_C18_Diacid)]-F-E-P—R—S—K-G-C—K—NH2 [Compound 221]”, the EC50 was > 100 µM. Same read-out and setting: to “Isovaleric Acid-E-T-H-[Dpa]-P—C—I-[Lys(PEG12_C16_Diacid)]-[bhPhe]-[(D)Lys]-C—NH2 [Compound 265]” belongs 23.1 µM; to “Isovaleric Acid-E-T-H-[Dpa]-P—C—I-[Lys(PEG12_IsoGlu_C18_Diacid)]-[bhPhe]-[(D)Lys(PEG11_OMe)]—C—NH2 [Compound 292]”, > 100 µM; to “Isovaleric Acid-E-T-H-[Dpa]-P-[Cys]-I-[Lys(2Peg11′_IsoGlu_C18)]-[bhPhe]-[(D)Lys]-[Cys]-NH2 [Compound 112]”, 0.52 µM.

For the molecule “Isovaleric Acid-E-T-H-[Dpa]-P—C—I-[Lys(PEG4_PEG4_IsoGlu_C18_Diacid)]-[bhF]-[(D)Lys]-C—NH2 [Compound 237]”, the EC50 is > 100 µM. In the case of “Isovaleric Acid-E-T-H-[Dpa]-P—C—I-[Lys(PEG12_C18_Diacid)]-[bhPhe]-[(D)Lys(PEG11_OMe)]—C—NH2 [Compound 293]”, the EC50 is > 100 µM.

As for “Isovaleric Acid-E-T-H-[Dpa]-P—C—I-[Lys(1PEG2_1PEG2_IsoGlu_C16_Diacid)]-[bhPhe]-[(D)Lys]-C—NH2 [Compound 232]”, the EC50 is > 100 µM. For “Isovaleric Acid-E-T-H-[Dpa]-P—C—I-[Lys(PEG4_IsoGlu_C18_Diacid)]-[bhF]-[(D)Lys]-C—NH2 [Compound 239]”, the concentration giving a half-maximal response (EC50) is > 100 µM. In the case of “Isovaleric Acid-E-T-H—F—P—C—I-[Lys(Ahx_Palm)]-F-E-P—R—S—K-G-C—K—NH2 [Compound 223]”, the EC50 is 0.7 µM. Still for that read-out and setting: for “Isovaleric Acid-E-T-H-[Dpa]-P—C—I-[Lys(1PEG2_1PEG2_IsoGlu_C14_Diacid)]-[bhPhe]-[(D)Lys]-C—NH2 [Compound 233]” the value was > 100 µM; for “Isovaleric Acid-E-T-H-[Dpa]-P—C—I-[Lys(1PEG2_1PEG2_IsoGlu_C18_Diacid)]-[bhPhe]-[(D)Lys]-[Pen]-NH2 [Compound 281]”, > 100 µM. For the molecule “Isovaleric Acid-E-T-H-[Dpa]-P—C—I-[Lys(1PEG8_IsoGlu_C18_Diacid)]-[bhPhe]-[(D)Lys]-C—NH2 [Compound 238]”, the EC50 is > 100 µM. With “Isovaleric Acid-E-T-H—F—P—C—I-[Lys(IsoGlu_Palm)]-F-E-P—R-S-G-C—NH2 [Compound 226]”, the EC50 came out at 15.7 µM.

Take “Isovaleric Acid-E-T-H-[Dpa]-P—C—I-[Lys(1PEG2_1PEG2_Ahx_C18_Diacid)]-[bhPhe]-[(D)Lys]-[Pen]-NH2 [Compound 280]”: the EC50 turned out to be 24.3 µM. On to “Isovaleric Acid-E-T-H—F—P—C—I-[Lys(1PEG2_1PEG2_IsoGlu_C18_Diacid)]-F-E-P—R—S—K-G-C—NH2 [Compound 206]”, for which the EC50 is > 100 µM. Consider “Isovaleric Acid-E-T-H-[Dpa]-P—C—I-[Lys(1PEG2_1PEG2_IsoGlu_C12_Diacid)]-[bhPhe]-[(D)Lys]-C—NH2 [Compound 234]”, for which the EC50 is > 100 µM. Same read-out and setting: to “Isovaleric Acid-[Glu_OMe]-T-H-[Dpa]-P—C—I-[Lys(1PEG2_1PEG2_Ahx_C18_Diacid)]-[bhPhe]-[(D)Lys]-C—NH2 [Compound 277]” belongs 11.7 µM.

Another test has as its target T1, human ferroportin (SLC40A1) fused in …. The experiment in a line: cell-based or functional assay.
Details: not given
On to Isovaleryl-ETH[Dip]PCCK([AEEA-AEEA-Ahx-C18 diacid])[β3hF][dK]-NH2 (not fully specified (bridges); cysteine pairing not given here) [Seq. No. 577], for which the “IC50: FPN internalisation” value was 0.002 µM.

In general, EC50 refers to the concentration that produces a half-maximal response.

The record behind these values is patent publication US20230295259A1 (Protagonist Therapeutics, Inc., priority 2020, published 2023).
